{
  "source": "patent US12433875B2",
  "about": "“(R)-4-(1-(6-(4-(trifluoromethyl)benzyl)-6-azaspiro[2.5]octane-5-carboxamido)-cyclopropyl) benzoic acid or its salt also in polymorphic form a for use in the prevention of heterotopic ossification” (ROTTAPHARM BIOTECH S.R.L., priority 2019, dated 2025)",
  "tested_on": "PBMC's from healthy volunteers (Th17 IL-17F memory cells)",
  "assay": "Human T-helper (Th) cell polarization, flow cytometry",
  "assay_type": "cell-based",
  "conditions": "100 nM; rIL-2 and rIL-21 5 ng/ml, anti-CD3 and anti-CD28 1.5 ng/ml, PGE2 30 nM, 48 hour; FIG. 12",
  "description": "FIG. 12a is the spydergram illustrating the preferential inhibitory effect of the form A of the sodium salt of (R)-4-(1-(6-(4-(trifluoromethyl)benzyl)-6-azaspiro[2.5]octane-5-carboxamido)cyclopropyl)benzoic acid on Th17 polarization towards Th17 IL-17F memory cells induced by a stimulation with rIL-2 and rIL-21 (both at 5 ng/ml) in combination with anti-CD3 and anti-CD28 (both at 1.5 ng/ml) co-stimulated with PGE2 (30 nM) over a 48 hour. Stimulated cells were normalized to 100%.\nFIG. 12b represents the percent of Th17 IL-17F memory cell stimulation (mean±sem) of cells taken by individual donors vs. their baseline levels in the absence or in the presence of 100 nM form A of the sodium salt of (R)-4-(1-(6-(4-(trifluoromethyl)benzyl)-6-azaspiro[2.5]octane-5-carboxamido)cyclopropyl)benzoic acid.\nIn this model the ability of the Form A of the sodium salt of (R)-4-(1-(6-(4-(trifluoromethyl)benzyl)-6-azaspiro[2.5]octane-5-carboxamido)cyclopropyl)benzoic acid to interacts with the immunological features able to influence pathological bone formation was studied. Specifically, the effect of the Form A of the sodium salt of (R)-4-(1-(6-(4-(trifluoromethyl)benzyl)-6-azaspiro[2.5]octane-5-carboxamido)cyclopropyl)benzoic acid on the Th-cell polarization in human Tcells stimulated by inflammatory agents was studied. […]",
  "data": [
    {"smiles": "O=C([O-])c1ccc(C2(NC(=O)[C@H]3CC4(CCN3Cc3ccc(C(F)(F)F)cc3)CC4)CC2)cc1.[Na+]", "note": "[Form A, sodium (R)-4-(1-(6-(4-(trifluoromethyl)benzyl)-6-azaspiro[2.5]octane-5-carboxamido)cyclopropyl)benzoate]", "values": [
      {"measurement": "polarization of Th17 cells towards IL-17F producing population (Th17 IL-17F memory cells)", "result": "reduce significantly the polarization of Th17 cells towards a population capable to produce IL-17F"}
    ]}
  ]
}
